According to US10457691B2, “Macrocyclic kinase inhibitors and uses thereof” (Dana-Farber Cancer Institute, Inc., priority 2014, dated 2019):

Assays:
Type in all cases: biochemical
Conditions in all cases: read-out: Activity of the protein kinase when treated with compound I-1 (% control)
[1] = molecular target: p38a MAPK (Homo sapiens, UniProt Q16539); assay: Protein kinase assay ([γ-32P] ATP), p38a MAPK
Procedure: (§1) In another set of experiments, the activities of the compounds described herein against various protein kinases were determined according to the methods reported in Hastie et al., Nature Protocols, 2006, 1, 968-971.
(§2) Enzyme dilution buffer. This buffer consisted of 50 mM Tris-HCl, pH 7.5, 0.1 mM EGTA, 1 mg ml^−1 bovine serum albumin and 0.1% (vol/vol) 2-mercaptoethanol.
(§3) 10× concentrated assay buffer. An assay buffer of 500 mM Tris-HCl, pH 7.5, 1 mM EGTA, and 100 mM magnesium acetate was used for assay of a wide variety of protein kinases. In some experiments, other cofactors were included (e.g., calcium ions and calmodulin were included for assay of calcium-calmodulindependent protein kinases).
(§4) 1 mM [γ-^32P] ATP. The specific activity of the [γ-^32P] ATP solution was 1×10^5 to 1×10^6 c.p.m. per nmol depending on what was needed to produce an optimal signal/noise ratio. […] To measure the concentration of ATP, a sample of such a stock solution was diluted to 20 μM, and the absorbance of the diluted sample was measured at 259 nm. The absorbance of a 20-μM stock solution of ATP at 259 nm was about 0.31. […] ATP to produce a radioactivity of 1×10^5 to 1×10^6 c.p.m. per nmol. […]
(§5) 13) Measure radioactivity in the samples by Cerenkov counting (e.g., without liquid scintillation fluid) in a liquid scintillation counter using a “^32P program”. […]

[2] = molecular target: PKD1 (Homo sapiens, UniProt Q15139); assay: Protein kinase assay ([γ-32P] ATP), PKD1
Procedure: as §1, §2, §3, §4, §5

[3] = molecular target: MLK3 (Homo sapiens, UniProt Q16584); assay: Protein kinase assay ([γ-32P] ATP), MLK3
Procedure: as §1, §2, §3, §4, §5

[4] = molecular target: MEKK1 (Homo sapiens, UniProt Q13233); assay: Protein kinase assay ([γ-32P] ATP), MEKK1
Procedure: as §1, §2, §3, §4, §5

[5] = molecular target: JAK2 (Homo sapiens, UniProt O60674); assay: Protein kinase assay ([γ-32P] ATP), JAK2
Procedure: as §1, §2, §3, §4, §5

[6] = molecular target: p38b MAPK (Homo sapiens, UniProt Q15759); assay: Protein kinase assay ([γ-32P] ATP), p38b MAPK
Procedure: as §1, §2, §3, §4, §5

[7] = molecular target: MKK1 (Homo sapiens, UniProt Q02750); assay: Protein kinase assay ([γ-32P] ATP), MKK1
Procedure: as §1, §2, §3, §4, §5

[8] = molecular target: EPH-B2 (Homo sapiens, UniProt P29323); assay: Protein kinase assay ([γ-32P] ATP), EPH-B2
Procedure: as §1, §2, §3, §4, §5

[9] = molecular target: CK1γ2 (Homo sapiens, UniProt P78368); assay: Protein kinase assay ([γ-32P] ATP), CK1γ2
Procedure: as §1, §2, §3, §4, §5

[10] = molecular target: CK1δ (Homo sapiens, UniProt P48730); assay: Protein kinase assay ([γ-32P] ATP), CK1δ
Procedure: as §1, §2, §3, §4, §5

[11] = molecular target: PRK2 (Homo sapiens, UniProt Q16513); assay: Protein kinase assay ([γ-32P] ATP), PRK2
Procedure: as §1, §2, §3, §4, §5

[12] = molecular target: IKKe (Homo sapiens, UniProt Q14164); assay: Protein kinase assay ([γ-32P] ATP), IKKe
Procedure: as §1, §2, §3, §4, §5

[13] = molecular target: PAK6 (Homo sapiens, UniProt Q9NQU5); assay: Protein kinase assay ([γ-32P] ATP), PAK6
Procedure: as §1, §2, §3, §4, §5

[14] = molecular target: IKKb (Homo sapiens, UniProt O14920); assay: Protein kinase assay ([γ-32P] ATP), IKKb
Procedure: as §1, §2, §3, §4, §5

[15] = molecular target: CAMKKb (Homo sapiens, UniProt Q96RR4); assay: Protein kinase assay ([γ-32P] ATP), CAMKKb
Procedure: as §1, §2, §3, §4, §5

[16] = molecular target: DDR2 (Homo sapiens, UniProt Q16832); assay: Protein kinase assay ([γ-32P] ATP), DDR2
Procedure: as §1, §2, §3, §4, §5

[17] = molecular target: MARK3 (Homo sapiens, UniProt P27448); assay: Protein kinase assay ([γ-32P] ATP), MARK3
Procedure: as §1, §2, §3, §4, §5

[18] = 0.1 μM of compound I-1, DMSO control = 100%
[19] = 1 μM of compound I-1, DMSO control = 100%

CK1γ2, sequence (P78368 whole entry): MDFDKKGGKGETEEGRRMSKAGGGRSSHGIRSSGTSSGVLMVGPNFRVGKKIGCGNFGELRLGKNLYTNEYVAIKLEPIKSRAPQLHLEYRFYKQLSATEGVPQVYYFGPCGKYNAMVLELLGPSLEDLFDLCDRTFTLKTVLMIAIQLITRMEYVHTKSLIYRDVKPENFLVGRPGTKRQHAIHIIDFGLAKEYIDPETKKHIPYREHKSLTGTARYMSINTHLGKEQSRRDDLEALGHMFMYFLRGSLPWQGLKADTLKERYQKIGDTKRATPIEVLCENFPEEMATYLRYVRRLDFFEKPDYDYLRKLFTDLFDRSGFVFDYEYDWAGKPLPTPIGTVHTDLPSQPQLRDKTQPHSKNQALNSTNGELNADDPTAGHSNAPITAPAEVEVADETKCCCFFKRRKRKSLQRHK
JAK2, sequence (O60674 whole entry): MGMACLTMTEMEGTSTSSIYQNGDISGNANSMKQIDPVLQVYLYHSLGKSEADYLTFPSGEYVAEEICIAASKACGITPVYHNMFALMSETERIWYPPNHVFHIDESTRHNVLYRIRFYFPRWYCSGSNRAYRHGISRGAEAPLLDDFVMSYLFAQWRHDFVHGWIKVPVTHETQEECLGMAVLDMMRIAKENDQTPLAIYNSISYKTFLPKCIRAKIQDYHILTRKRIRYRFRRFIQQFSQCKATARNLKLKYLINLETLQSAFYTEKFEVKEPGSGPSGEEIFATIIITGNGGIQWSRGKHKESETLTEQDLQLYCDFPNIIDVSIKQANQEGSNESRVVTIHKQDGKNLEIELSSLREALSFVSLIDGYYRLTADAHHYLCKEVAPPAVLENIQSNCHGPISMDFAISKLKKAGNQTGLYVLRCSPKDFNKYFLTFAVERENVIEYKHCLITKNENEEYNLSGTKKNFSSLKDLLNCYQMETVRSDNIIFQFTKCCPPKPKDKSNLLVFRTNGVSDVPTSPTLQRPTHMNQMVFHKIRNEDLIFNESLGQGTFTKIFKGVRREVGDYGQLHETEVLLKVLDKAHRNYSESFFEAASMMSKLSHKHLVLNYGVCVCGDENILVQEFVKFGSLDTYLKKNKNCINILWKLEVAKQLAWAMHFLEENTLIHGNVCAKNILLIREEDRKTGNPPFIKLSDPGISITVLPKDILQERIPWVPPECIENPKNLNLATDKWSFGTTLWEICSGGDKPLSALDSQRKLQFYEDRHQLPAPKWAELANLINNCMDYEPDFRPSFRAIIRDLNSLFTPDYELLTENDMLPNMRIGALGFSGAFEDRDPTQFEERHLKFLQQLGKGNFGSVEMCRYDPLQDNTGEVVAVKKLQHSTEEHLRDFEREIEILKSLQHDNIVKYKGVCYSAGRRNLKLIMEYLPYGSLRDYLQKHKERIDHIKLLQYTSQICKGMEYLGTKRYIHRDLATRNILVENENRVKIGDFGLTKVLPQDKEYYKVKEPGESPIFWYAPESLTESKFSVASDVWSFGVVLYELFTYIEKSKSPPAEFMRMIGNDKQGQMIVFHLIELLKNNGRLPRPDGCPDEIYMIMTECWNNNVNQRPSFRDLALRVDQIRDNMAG
CAMKKb, sequence (Q96RR4 whole entry): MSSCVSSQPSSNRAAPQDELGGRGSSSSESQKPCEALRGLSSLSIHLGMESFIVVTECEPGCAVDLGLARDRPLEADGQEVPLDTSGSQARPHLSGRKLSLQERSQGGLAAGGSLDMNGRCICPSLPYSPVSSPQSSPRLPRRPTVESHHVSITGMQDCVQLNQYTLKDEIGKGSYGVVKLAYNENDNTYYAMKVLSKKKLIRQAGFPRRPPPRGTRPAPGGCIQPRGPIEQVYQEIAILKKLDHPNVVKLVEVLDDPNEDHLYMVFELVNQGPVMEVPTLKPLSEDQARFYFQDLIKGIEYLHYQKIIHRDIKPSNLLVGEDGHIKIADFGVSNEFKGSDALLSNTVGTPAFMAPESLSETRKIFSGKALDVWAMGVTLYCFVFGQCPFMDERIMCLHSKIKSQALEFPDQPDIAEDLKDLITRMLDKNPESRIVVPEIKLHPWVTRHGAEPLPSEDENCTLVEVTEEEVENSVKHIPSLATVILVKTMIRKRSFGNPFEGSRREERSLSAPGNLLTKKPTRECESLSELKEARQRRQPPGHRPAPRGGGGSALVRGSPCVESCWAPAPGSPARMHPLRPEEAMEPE
p38b MAPK, sequence (Q15759 whole entry): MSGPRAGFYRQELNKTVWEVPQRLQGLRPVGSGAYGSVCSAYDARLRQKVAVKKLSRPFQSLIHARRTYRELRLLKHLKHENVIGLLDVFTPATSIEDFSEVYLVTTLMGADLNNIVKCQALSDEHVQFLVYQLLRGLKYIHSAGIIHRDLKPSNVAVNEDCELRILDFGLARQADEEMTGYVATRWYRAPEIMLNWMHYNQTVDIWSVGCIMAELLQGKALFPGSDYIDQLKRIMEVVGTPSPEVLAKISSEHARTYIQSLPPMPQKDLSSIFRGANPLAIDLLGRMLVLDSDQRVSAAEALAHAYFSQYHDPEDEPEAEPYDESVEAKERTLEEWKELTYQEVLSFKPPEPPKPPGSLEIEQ
MLK3, sequence (Q16584 whole entry): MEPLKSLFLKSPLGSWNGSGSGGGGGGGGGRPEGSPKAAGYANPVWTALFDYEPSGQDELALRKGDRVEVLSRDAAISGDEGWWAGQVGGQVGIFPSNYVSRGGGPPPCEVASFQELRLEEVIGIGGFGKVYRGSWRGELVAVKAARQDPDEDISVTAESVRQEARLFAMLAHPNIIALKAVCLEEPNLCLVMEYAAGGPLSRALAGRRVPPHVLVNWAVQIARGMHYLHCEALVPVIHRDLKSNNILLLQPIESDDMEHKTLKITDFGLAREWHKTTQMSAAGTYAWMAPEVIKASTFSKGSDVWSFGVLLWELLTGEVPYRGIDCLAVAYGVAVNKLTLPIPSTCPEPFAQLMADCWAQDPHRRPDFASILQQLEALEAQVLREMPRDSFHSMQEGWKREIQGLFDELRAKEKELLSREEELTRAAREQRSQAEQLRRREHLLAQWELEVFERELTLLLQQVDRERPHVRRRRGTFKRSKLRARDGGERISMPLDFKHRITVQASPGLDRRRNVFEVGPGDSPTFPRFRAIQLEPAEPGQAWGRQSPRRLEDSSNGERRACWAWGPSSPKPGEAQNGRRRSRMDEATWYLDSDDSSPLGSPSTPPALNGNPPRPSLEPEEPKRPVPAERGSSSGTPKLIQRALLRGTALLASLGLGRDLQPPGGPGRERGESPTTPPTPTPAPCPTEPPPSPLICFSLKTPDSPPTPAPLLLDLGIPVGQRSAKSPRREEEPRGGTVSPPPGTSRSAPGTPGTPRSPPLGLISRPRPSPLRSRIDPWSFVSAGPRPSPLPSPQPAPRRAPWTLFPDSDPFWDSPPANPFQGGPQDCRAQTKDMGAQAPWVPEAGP
EPH-B2, sequence (P29323 19-1055): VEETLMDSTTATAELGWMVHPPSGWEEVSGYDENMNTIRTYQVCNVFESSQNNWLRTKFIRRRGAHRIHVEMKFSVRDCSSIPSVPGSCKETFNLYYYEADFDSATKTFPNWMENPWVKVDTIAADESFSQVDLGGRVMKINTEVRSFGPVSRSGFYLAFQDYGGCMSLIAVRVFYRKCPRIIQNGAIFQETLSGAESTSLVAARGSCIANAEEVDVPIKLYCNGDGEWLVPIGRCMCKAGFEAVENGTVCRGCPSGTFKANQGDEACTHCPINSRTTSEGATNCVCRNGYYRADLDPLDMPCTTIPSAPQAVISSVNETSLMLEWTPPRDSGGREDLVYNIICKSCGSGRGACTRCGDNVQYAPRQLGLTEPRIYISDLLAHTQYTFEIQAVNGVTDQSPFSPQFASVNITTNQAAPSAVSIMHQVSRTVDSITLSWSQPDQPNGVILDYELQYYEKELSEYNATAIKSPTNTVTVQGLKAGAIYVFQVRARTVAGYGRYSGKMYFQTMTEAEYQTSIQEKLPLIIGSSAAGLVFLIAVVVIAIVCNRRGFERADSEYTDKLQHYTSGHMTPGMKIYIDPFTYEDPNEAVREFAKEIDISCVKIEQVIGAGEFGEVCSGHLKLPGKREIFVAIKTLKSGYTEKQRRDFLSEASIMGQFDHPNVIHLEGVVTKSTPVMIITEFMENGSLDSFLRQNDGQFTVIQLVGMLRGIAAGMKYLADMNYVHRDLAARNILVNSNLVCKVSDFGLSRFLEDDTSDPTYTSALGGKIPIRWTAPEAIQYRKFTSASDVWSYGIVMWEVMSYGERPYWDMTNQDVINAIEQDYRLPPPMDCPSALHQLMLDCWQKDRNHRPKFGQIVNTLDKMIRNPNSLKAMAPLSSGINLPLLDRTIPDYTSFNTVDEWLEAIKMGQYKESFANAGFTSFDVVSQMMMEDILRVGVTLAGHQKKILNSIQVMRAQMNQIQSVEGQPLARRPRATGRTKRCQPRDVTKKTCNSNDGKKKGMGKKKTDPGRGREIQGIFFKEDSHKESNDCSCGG
p38a MAPK, sequence (Q16539 whole entry): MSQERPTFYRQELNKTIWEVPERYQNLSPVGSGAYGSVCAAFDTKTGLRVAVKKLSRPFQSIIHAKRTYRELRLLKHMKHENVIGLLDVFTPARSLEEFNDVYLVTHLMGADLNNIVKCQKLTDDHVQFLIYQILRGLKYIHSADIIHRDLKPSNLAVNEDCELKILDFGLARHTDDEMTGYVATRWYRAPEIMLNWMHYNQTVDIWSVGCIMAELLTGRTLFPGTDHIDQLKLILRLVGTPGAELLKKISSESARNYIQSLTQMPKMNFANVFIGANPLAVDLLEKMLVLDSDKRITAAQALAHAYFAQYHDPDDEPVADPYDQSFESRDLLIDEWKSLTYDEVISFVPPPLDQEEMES

Compound: Cc1cccc(C)c1NC(=O)N1C/C=C\COc2cccc(c2)Nc2cc1ncn2 [Compound I-1]
- remaining activity at 0.1 µM [1, 18]: 79%
- remaining activity at 1 µM [1, 19]: 14%
- remaining activity at 0.1 µM [2, 18]: 63%
- remaining activity at 1 µM [2, 19]: 29%
- remaining activity at 0.1 µM [3, 18]: 94%
- remaining activity at 1 µM [3, 19]: 39%
- remaining activity at 0.1 µM [4, 18]: 96%
- remaining activity at 1 µM [4, 19]: 95%
- remaining activity at 0.1 µM [5, 18]: 100%
- remaining activity at 1 µM [5, 19]: 72%
- remaining activity at 0.1 µM [6, 18]: 83%
- remaining activity at 1 µM [6, 19]: 29%
- remaining activity at 0.1 µM [7, 18]: 96%
- remaining activity at 1 µM [7, 19]: 81%
- remaining activity at 0.1 µM [8, 18]: 54%
- remaining activity at 1 µM [8, 19]: 1%
- remaining activity at 0.1 µM [9, 18]: 96%
- remaining activity at 1 µM [9, 19]: 100%
- remaining activity at 0.1 µM [10, 18]: 97%
- remaining activity at 1 µM [10, 19]: 99%
- remaining activity at 0.1 µM [11, 18]: 112%
- remaining activity at 1 µM [11, 19]: 87%
- remaining activity at 0.1 µM [12, 18]: 111%
- remaining activity at 1 µM [12, 19]: 90%
- remaining activity at 0.1 µM [13, 18]: 101%
- remaining activity at 1 µM [13, 19]: 78%
- remaining activity at 0.1 µM [14, 18]: 103%
- remaining activity at 1 µM [14, 19]: 77%
- remaining activity at 0.1 µM [15, 18]: 101%
- remaining activity at 1 µM [15, 19]: 88%
- remaining activity at 0.1 µM [16, 18]: 28%
- remaining activity at 1 µM [16, 19]: 3%
- remaining activity at 0.1 µM [17, 18]: 90%
- remaining activity at 1 µM [17, 19]: 67%
